Reference: PMC10458118, “Bitter Almond Albumin ACE-Inhibitory Peptides: Purification, Screening, and Characterization In Silico, Action Mechanisms, Antihypertensive Effect In Vivo, and Stability” (Molecules, 2023)
Each block holds one substance with its values, some of them ahead of it. Ends that are not written are not given here.

Columns and labels:
[1] = tested on: ACE; conditions: cited from earlier work; for ACE-inhibitory activity in words: 30 (ADMIET, QTPHQ, ELHPQ), ref 27 (RTVFDGEL, RADVFNPR); for IC50: read-out: Inhibitory capacity on ACE (IC50)
Description: The results of ultra-high-performance liquid chromatography and quantum-ultra mass spectrometric determination of BAAH-4-C are shown in Table 1 and Figure 4. Five oligopeptides, […]([…]), Lys-Thr-Glu-Thr-Gln-Pro (KTETQP), […]([…]), […]([…]), and Thr-Cys-Gly-Ala-Ser (TCGAS) were obtained. However, only […] offered potential antihypertension based on the vector machine software score (1.35) calculated by the database AHTpin [28]. […] As shown in the Lineweaver–Burk diagram of ACE, the Km increased with the increasing […] dose, but the maximum velocity (Vmax) decreased when the […] dose increased, which was the typical effect of noncompetitive inhibitors. Peptides such as […] an ... || To the best of our knowledge, this is the first study to simultaneously investigate the capacities of bitter almond albumin peptides to inhibit ACE and bind with zinc ions. Previous studies evidenced that thermolysin could quickly cleave the amide bonds linked with hydrophobic amino acid residues, with the released hydrophobic amino acid residues playing an important role in ACE inhibition; whereas papain cleaves multiple sites of polypeptide chains, especially peptide bonds linking with acidic amino acid residues (Glu and Asp), Arg, and aromatic amino acids which was helpful for the release o ... || (+ 2 further places)

[2] = tested on: SHR; conditions: cited from earlier work
Description: Zinc chelation may change the coordination of peptides toward ACE, resulting in lower ACE-inhibitory activity and antihypertension.

[3] = Chelating ability toward zinc ions, 4-(β-Pyridinazo)-resorcinol method; type: physicochemical; conditions: 0.75 mmol·L^−1 ZnSO4 in HEPES-KOH buffer, peptide solution 0.8 mg·mL^−1, 15 min, 25 °C; repeated three or more times
Experimental: (§1) In short, 0.75 mmol·L^−1 of ZnSO4 (dissolved in 0.2 mmol·L^−1 of HEPES-KOH buffer) and 10 mmol·L^−1 of 1,4-Dithiothreitol were added into a glass tube. The tube was incubated in the THZ-82AB thermostatic oscillator (195 r·min^−1 and 25 °C). Five minutes later, the zinc concentration in the glass tube was measured and read as C0. Next, the BAAH peptides aqueous solution (0.8 mg·mL^−1) was added and the mixture was continuously shaken for another 15 min. Then, the zinc concentration in the glass tube was measured and read as Ct. The chelating ability of BAAH peptides toward zinc ions was calculated as follows, and ethylenediamine tetraacetic acid (EDTA) was used as the positive control. (1) Chelating ability towards zinc ions (mg·g^−1) = (C0−Ct) × V/m where V and m represent the volume of the reaction solution (mL) and the mass weight of BAAH peptides (g), respectively.

[4] = tested on: ACE; test: ACE inhibition after simulated gastrointestinal digestion (pepsin, then pancreatin); type: in vitro ADME; conditions: pepsin pH 2.00, 90 min, then pancreatin pH 7.00, 150 min, 37 °C; p > 0.5 as printed
Experimental: The N-hippuryl-L-histidyl-L-leucine method was utilized for the determination of the inhibiting capacity of BAAH peptides toward ACE [30]. In a glass test tube, 0.2 mL of ACE solution (dissolved in boric acid buffer, pH 8.3) and 0.2 mL of BAAH peptide aqueous solution (1 mg·mL^−1) were added. The mixture in the glass tube was shaken in a water bath at 143 r·min^−1 and 37 °C. Ten minutes later, 0.65 mL of N-hippuryl-L-histidyl-L-leucine (5 mmol·L^−1, dissolved in boric acid buffer, pH 8.3) was added. After continuously shaking for 1 h, 0.75 mL of dilute hydrochloric acid was added into the tube. Next, hippuric acid produced in the reaction solution was extracted by ethyl acetate (1.25 mL). The hippuric acid solution (the supernatant) was sucked out with a pipette (DG-1, Dragon TopPette, Beijing, China) and heated at 70 °C to evaporate the ethyl acetate. The residual hippuric acid was resolved in distilled water, and its absorbance at 228 nm was read. The inhibition capacity of BAAH peptides against ACE was the percentage of the absorbance reduction value at 228 nm to the absorbance of the control group (without BAAH peptide). The concentration of BAAH peptides was defined as IC50 when the activity of ACE was inhibited by half. Captopril was used as the positive control. […]

[5] = biological target: T1, ACE (Oryctolagus cuniculus, UniProt P12822); test: ACE inhibition, N-hippuryl-L-histidyl-L-leucine method; type: biochemical; conditions: synthesized peptide; HHL 5 mmol·L^−1, boric acid buffer pH 8.3, 37 °C, 10 min pre-incubation, 1 h reaction, absorbance at 228 nm; read-out: Inhibitory effect against ACE (IC50)
T1 construct: purchased Sigma (St. Louis, MO, USA)
T1 sequence (P12822 34-1310): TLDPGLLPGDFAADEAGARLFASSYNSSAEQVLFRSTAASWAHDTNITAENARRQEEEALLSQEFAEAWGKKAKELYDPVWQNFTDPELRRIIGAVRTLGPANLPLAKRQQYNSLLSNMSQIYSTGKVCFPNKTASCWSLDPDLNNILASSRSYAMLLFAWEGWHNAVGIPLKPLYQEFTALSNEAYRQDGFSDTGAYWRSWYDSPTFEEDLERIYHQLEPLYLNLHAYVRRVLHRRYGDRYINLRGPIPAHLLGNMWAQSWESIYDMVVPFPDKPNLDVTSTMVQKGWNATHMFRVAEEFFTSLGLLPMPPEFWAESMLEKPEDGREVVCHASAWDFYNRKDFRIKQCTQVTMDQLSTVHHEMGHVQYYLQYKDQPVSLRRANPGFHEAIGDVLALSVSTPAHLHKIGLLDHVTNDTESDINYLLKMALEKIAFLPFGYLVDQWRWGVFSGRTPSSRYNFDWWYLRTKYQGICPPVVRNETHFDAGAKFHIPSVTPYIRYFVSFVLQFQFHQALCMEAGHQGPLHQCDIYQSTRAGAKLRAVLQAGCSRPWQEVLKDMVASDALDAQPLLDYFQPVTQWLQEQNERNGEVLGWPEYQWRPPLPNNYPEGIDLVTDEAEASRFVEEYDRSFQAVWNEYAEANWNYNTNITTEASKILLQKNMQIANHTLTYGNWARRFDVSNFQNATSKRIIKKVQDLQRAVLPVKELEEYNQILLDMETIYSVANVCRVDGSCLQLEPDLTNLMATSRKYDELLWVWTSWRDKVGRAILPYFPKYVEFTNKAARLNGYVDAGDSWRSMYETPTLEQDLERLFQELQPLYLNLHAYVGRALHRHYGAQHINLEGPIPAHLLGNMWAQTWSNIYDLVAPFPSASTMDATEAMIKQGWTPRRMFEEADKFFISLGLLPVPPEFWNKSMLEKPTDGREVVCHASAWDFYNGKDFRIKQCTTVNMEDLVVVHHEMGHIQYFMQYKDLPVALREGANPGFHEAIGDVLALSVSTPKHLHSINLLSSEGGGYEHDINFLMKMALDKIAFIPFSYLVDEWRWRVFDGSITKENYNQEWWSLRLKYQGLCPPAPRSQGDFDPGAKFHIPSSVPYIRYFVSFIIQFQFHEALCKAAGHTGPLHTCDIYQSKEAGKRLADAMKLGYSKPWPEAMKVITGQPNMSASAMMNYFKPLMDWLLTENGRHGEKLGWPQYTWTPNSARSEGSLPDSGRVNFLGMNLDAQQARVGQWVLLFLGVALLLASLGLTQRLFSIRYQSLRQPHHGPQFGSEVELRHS
Experimental: The N-hippuryl-L-histidyl-L-leucine method was utilized for the determination of the inhibiting capacity of BAAH peptides toward ACE [30]. In a glass test tube, 0.2 mL of ACE solution (dissolved in boric acid buffer, pH 8.3) and 0.2 mL of BAAH peptide aqueous solution (1 mg·mL^−1) were added. The mixture in the glass tube was shaken in a water bath at 143 r·min^−1 and 37 °C. Ten minutes later, 0.65 mL of N-hippuryl-L-histidyl-L-leucine (5 mmol·L^−1, dissolved in boric acid buffer, pH 8.3) was added. After continuously shaking for 1 h, 0.75 mL of dilute hydrochloric acid was added into the tube. Next, hippuric acid produced in the reaction solution was extracted by ethyl acetate (1.25 mL). The hippuric acid solution (the supernatant) was sucked out with a pipette (DG-1, Dragon TopPette, Beijing, China) and heated at 70 °C to evaporate the ethyl acetate. The residual hippuric acid was resolved in distilled water, and its absorbance at 228 nm was read. The inhibition capacity of BAAH peptides against ACE was the percentage of the absorbance reduction value at 228 nm to the absorbance of the control group (without BAAH peptide). The concentration of BAAH peptides was defined as IC50 when the activity of ACE was inhibited by half.

[6] = Zinc-chelating ability after simulated gastrointestinal digestion (pepsin, then pancreatin); type: in vitro ADME; conditions: 5 mg/mL peptide; pepsin pH 2.00, 90 min, then pancreatin pH 7.00, 150 min, 37 °C; then 4-(β-Pyridinazo)-resorcinol method
Experimental: as §1
In a stirring (115 r·min^−1) water bath at 37 °C, the BAAH peptides’ aqueous solution (5 mg/mL, 10 mL) was added into a glass test tube, and the pH value was adjusted to 2.00 ± 0.05 with dilute hydrochloric acid solution (0.5 mol·L^−1). […] Afterward, both the chelating ability toward zinc ion, and the inhibition activity of BAAH peptides against ACE were determined using the 4-(β-Pyridinazo)-resorcinol method and N-hippuryl-L-histidyl-L-leucine method, respectively. […]

Substance: PGSGCAGTDL [called Mung bean-derived in b48]
ACE inhibitory pattern [1]: noncompetitive
Antihypertensive effects on SHR [2]: dose-dependent antihypertensive effects
Effect of the addition of zinc ions on antihypertension [2]: reduce

Substance: KYPHVF [symbiotic peptide]
ACE inhibition ability after zinc chelation [1]: not significantly reduced

Substance: ELHPQ [peptide derived from canary seeds]
ACE-inhibitory activity in words [1]: high ACE-inhibitory activities

Substance: ADMIET [peptide identified in Lepidium meyenii]
ACE-inhibitory activity in words [1]: high ACE-inhibitory activities

Substance: LVRYYLLVR [peptide from hazelnut protein]
ACE inhibitory pattern [1]: noncompetitive

Substance: QPPAAAAAAGAG
Chelating ability toward zinc ions [3]: 1.14 ± 0.01 g mg·g^−1

Substance: QTPHQ [peptide derived from canary seeds]
ACE-inhibitory activity in words [1]: high ACE-inhibitory activities

Zinc-chelating ability and ACE-inhibitory capacity after hydrolysis of gastrointestinal proteases, versus untreated peptide [4]: not significantly reduced
IC50 [5]: 206 µM
Chelating ability toward zinc ions after gastrointestinal digestion [6]: 18.55 ± 0.95 mg/g
Substance: RPPSEDEDQE

Substance: RTVFDGEL [peptide derived from palm kernel glutelin-1]
ACE-inhibitory activity in words [1]: excellent ability to restrain ACE

Substance: EKTFLLYSCPHR [peptide identified from camel milk]
IC50 [1]: 312 µM

Substance: HLNVVHEN [peptide identified from walnut protein]
ACE inhibitory pattern [1]: noncompetitive

Substance: LYSPLLKYFD [peptide from rice bran]
Antihypertensive effects on SHR [2]: dose-dependent antihypertensive effects
Effect of the addition of zinc ions on antihypertension [2]: reduce

Substance: GYGYNY [camellia peptide]
Antihypertensive effects on SHR [2]: dose-dependent antihypertensive effects
Effect of the addition of zinc ions on antihypertension [2]: reduce

Substance: FMRWRDRFL [peptide isolated from tombul hazelnut]
IC50 [1]: 260 µM

Substance: KTETQP [KTETQP]
Chelating ability toward zinc ions [3]: 19.30 ± 1.46 e mg·g^−1

Substance: RADVFNPR [peptide derived from palm kernel glutelin-1]
ACE-inhibitory activity in words [1]: excellent ability to restrain ACE
